Results published in the supplement of paper PMC11208160.

Experiment: recombinant UMI read abundance after kanamycin selection (control-corrected) (log10(CPM+1)); higher = more efficient recombination; extreme values may be limits of the assay; sequences stand for … in AGTGCAGAGAAAATCGGCCAGTTTTCTCTGCCTGCAGTCCGCATGCCGTGGGACCCCTTGGGTTCTAACCTGTTGCCTAGATTTATGCAGCGGACTGCCTTTCTCCCAAAGTGATAAACCGG…AGGTTGGTTTCACT; site = the 11-nt donor
Procedure, shortened: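 For the IS621 bridge recombinase, a pooled Escherichia coli screen tested donor and donor-binding-loop pairs. Cells received the pair library together with a target plasmid encoding a fixed target and T7-inducible recombinase, then went onto IPTG (0.07 mM) plus kanamycin or unselected plates in duplicate. After PCR across the donor–target junction and sequencing, recombinant UMI counts were normalized to CPM, averaged, and scaled by control-derived factors. Each value is given as log10(CPM+1).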
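Also: IS621 bridge recombinase in Escherichia coli cells against a fixed T5 target plasmid.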

Sequence | recombinant UMI read abundance (log10)
CGATCATCATGGACCGGTTTTCCCGGTAATCCGTATTTGAT (site CGATCATCTAC) | 0.213
CGATCATCATGGACCGGTTTTCCCGGTAATCCGTATTTGAT (site CGATCATCTAG) | 0
CGATCATCATGGACCGGTTTTCCCGGTAATCCGTATTTGAT (site CGATCATCTAT) | 0.727
CGATCATCATGGACCGGTTTTCCCGGTAATCCGTATTTGCC (site CGATCATCTAG) | 0
CGATCATCATGGACCGGTTTTCCCGGTAATCCGTATTTGCC (site CGATCATCTCG) | 0.00333
CGATCATCATGGACCGGTTTTCCCGGTAATCCGTATTTGCC (site CGATCATCTGG) | 0
CGATCATCATGGACCGGTTTTCCCGGTAATCCGTATTTGCC (site CGATCATCTTG) | 0
CGATCATCATGGACCGGTTTTCCCGGTAATCCGTATTTGCG (site CGATCATCTAG) | 0
CGATCATCATGGACCGGTTTTCCCGGTAATCCGTATTTGCG (site CGATCATCTCG) | 2.32
CGATCATCATGGACCGGTTTTCCCGGTAATCCGTATTTGCG (site CGATCATCTGG) | 0
CGATCATCATGGACCGGTTTTCCCGGTAATCCGTATTTGCG (site CGATCATCTTG) | 0.00387
CGATCCCCATGGACCGGTTTTCCCGGTAATCCGTATTTGGG (site CGATCCCCTCC) | 0.00829
CGATCCTCATGGACCGGTTTTCCCGGTAATCCGTATTTGGT (site CGATCATCTAG) | 0
CGATCCTCATGGACCGGTTTTCCCGGTAATCCGTATTTGGT (site CGATCCTCTAC) | 1.74
CGATCGACATGGACCGGTTTTCCCGGTAATCCGTATTTGGT (site CGATCGACTAA) | 0.276
CGATCGACATGGACCGGTTTTCCCGGTAATCCGTATTTGGT (site CGATCGACTAC) | 0.733
CGATCGACATGGACCGGTTTTCCCGGTAATCCGTATTTGGT (site CGATCGACTAG) | 0
CGATCGACATGGACCGGTTTTCCCGGTAATCCGTATTTGGT (site CGATCGACTAT) | 1.46
CGATCGACATGGACCGGTTTTCCCGGTAATCCGTATTTGTA (site CGATCGACTAA) | 0

Sequence | recombinant UMI read abundance (log10)
CGATCGACATGGACCGGTTTTCCCGGTAATCCGTATTTGTA (site CGATCGACTCA) | 0.0107
CGATCGACATGGACCGGTTTTCCCGGTAATCCGTATTTGTA (site CGATCGACTGA) | 0
CGATCGACATGGACCGGTTTTCCCGGTAATCCGTATTTGTA (site CGATCGACTTA) | 1.19
CGATCGTCATGGACCGGTTTTCCCGGTAATCCGTATTTGAT (site CGATCATCTAG) | 0.00648
CGATCGTCATGGACCGGTTTTCCCGGTAATCCGTATTTGAT (site CGATCGTCTAT) | 0.972
CGATGATCATGGACCGGTTTTCCCGGTAATCCGTATTTGAG (site CGATGATCTCT) | 3.16
CGATGATCATGGACCGGTTTTCCCGGTAATCCGTATTTGCC (site CGATCATCTAG) | 0
CGATGATCATGGACCGGTTTTCCCGGTAATCCGTATTTGCC (site CGATGATCTGG) | 2
CGATGCGCATGGACCGGTTTTCCCGGTAATCCGTATTTGAT (site CGATGCGCTAT) | 2.43
CGATGCTCATGGACCGGTTTTCCCGGTAATCCGTATTTGAA (site CAATGCTCTTT) | 0.249
CGATGCTCATGGACCGGTTTTCCCGGTAATCCGTATTTGAA (site CCATGCTCTTT) | 0.00345
CGATGCTCATGGACCGGTTTTCCCGGTAATCCGTATTTGAA (site CGATGCTCTTT) | 2.6
CGATGCTCATGGACCGGTTTTCCCGGTAATCCGTATTTGAA (site CTATGCTCTTT) | 0.0185
CGATGTCCATGGACCGGTTTTCCCGGTAATCCGTATTTGGA (site CGATGTCCTTC) | 0.0178
CGATTCGCATGGACCGGTTTTCCCGGTAATCCGTATTTGCT (site CGATTCGCTAG) | 2.12
CGATTGACATGGACCGGTTTTCCCGGTAATCCGTATTTGTT (site CGATAGACTAA) | 0.0285
CGATTGACATGGACCGGTTTTCCCGGTAATCCGTATTTGTT (site CGATCGACTAA) | 0.016
CGATTGACATGGACCGGTTTTCCCGGTAATCCGTATTTGTT (site CGATGGACTAA) | 0.00746
